Format in all cases: in vivo, rat
Series [1] has as its system CRHR1, CRHR2, CRH and GR mRNA in hippocampus. The series is described as follows: qRT-PCR of mRNA levels in hippocampus. To be noted: day 60. On the procedure:
Endometriosis vesicles and normal uterine tissue from endometriosis or sham rats, were lysed in an RLT buffer (QIAGEN, Germantown, Md.) using the BULLET BLENDER Tissue Homogenizer (NEXT ADVANCE, Averill Park, N.Y.). The total RNA from the lysates were extracted according to RNEASY Mini Kit manufacturer's protocol (QIAGEN, Germantown, Md.). RNA concentration and purity were measured on a NanoDrop™ 2000 UV spectrophotometer (Thermo Scientific™, Wilmington, USA). Concentration and quality of RNA samples were acquired based on the ratio of absorbance at 260/280 nm in the spectrophotometer. To carry out the synthesis of cDNA from RNA samples a total reaction volume of 20 μl including 0.1 μg of total RNA concentration and synthesis reagents was used. A iScript™ cDNA Synthesis Kit was used according to manufacturer's protocol (BIO-RAD, Hercules, Calif.). Reactions were carried out in T-100™ thermal cycler (BIO-RAD, Hercules, Calif.). RT-PCR running method was as follows: 25° C. for 5 min, 42° C. for 30 min, 85° C. for 5 min. Samples were stored at −80° C. for later experimentation or qRT-PCR.
Real time quantitative PCR (qPCR) was used to evaluate changes in mRNA expression. For this, 25 μl of a total volume of reaction assay was used with 1:10 dilution of cDNA with iQ™ SYBR Green Supermix (BIO-RAD Hercules, Calif.) in a 96 well plate according to the manufacturer protocol and amplified in a Quant Studio™ 12 K Flex Real time PCR System (Applied Biosystems™, Carlsbad, Calif.). Commercial primers for CRH, UCN1 CRHR1, CRHR2 and glucocorticoid receptor (GR) were purchased from QIAGEN (Germantown, Md.). Real time PCR cycles protocol was as follows: 95° C. for 10 min. for enzyme activation followed by 40 cycles of denaturing at 95° C. for 15 sec. and annealing at 60° C. for 1 min. All changes in gene expression were normalized against GAPDH of each sample. CT values and changes per gene expression level were automatically analyzed by the Quantstudio™ 12 K Flex Software (Applied Biosystems™, Carlsbad, Calif.). All samples were run in duplicate. For comparison purposes, mRNA from sham rats were always run within the same plate as experimental samples from vehicle treated and antalarmin treated groups.
Endometriosis and antalarmin have long-lasting effects in the brain. Previous work reported a decrease in CRH within hippocampus of animals with endometriosis compared to sham rats that were subject to stress. Given that antalarmin readily crosses the blood brain barrier, the effects of treatment in the hippocampus was quantified. […] It appears that the increase in CRH1 was balanced out by an equally similar increase in CRH2. This was not observed in the vehicle treated groups (FIGS. 10A and 10B). mRNA was collected and quantified as described in Example 1. […]

Series [2] concerns CRH peptide, CRHR1 and glucocorticoid receptor (GR) in hypothalamus and hippocampus. The series is described as follows: Brain immunohistochemistry (percent of area immunolabeled). On the procedure: Protocols previously published (Torres-Reveron et al., 2016, 2009, 2008) were followed. Rats were perfused with 4% paraformaldehyde by aortic arch perfusion and brains were removed and stored in cryoprotectant solution (30% sucrose, 30% ethylene glycol) until further processing. Coronal tissue sections (40 μm thick) through the hypothalamus (sections 0.92 to 1.88 caudal to Bregma) and dorsal hippocampus (sections 3.8 to 4.3 caudal to Bregma), which include the amygdala were selected and incubated in antiserum raised against CRHR1 (goat polyclonal, Abcam, cat. ab59023), CRH peptide antibody (guinea pig polyclonal, Peninsula labs., cat. T-5007) or glucocorticoid receptor antibody (GR, rabbit monoclonal, Cell Signaling cat. #3660) for 48 hrs. at 4° C. Optimal working concentrations were determined for each antibody. The primary antibody was labeled with CY3 secondary antibody (1:400 Jackson ImmunoResearch, West Grove, Pa.). Images were taken at the same time and illumination (excitation) and background corrected to control for batch effects. All regions of interest were analyzed using Image J software (open access from NIH) to calculate the percent of positive immunolabeling within the region of interest. Tissue from control and experimental animals was processed together. For each animal, the two best morphologically preserved sections of each region of interest were included in the analysis.

Series [3] in a line: Body weight monitoring of rats with endometriosis. To be noted: vs vehicle. From the text:
Female Sprague Dawley rats of 60 days old were used in the experiments (weighing between 190-220 grams). Rats were purchased from Ponce Research Institute Animal Facilities and littermates were never assigned to the same experimental group. Rats were housed two per cage and kept in a 12-hour light/dark cycle with food and water ad libitum. All experimental procedures were approved by the Ponce Health Sciences University (protocol #202) and the University of Texas at Rio Grande Valley (protocol #2016-004) Institutional Animal Care and Use Committees and adhere to the NIH Guide for the Care and Use of Laboratory Animals. Rats were weighed twice per week to monitor their adequate development and once a day during the drug administration period; also, estrous cycles were monitored before and after treatment to assess possible effects of the drug on reproductive cyclicity.
Inconsistencies in the effect of antalarmin on […] rodent body weight can happen. The Group 2 rat weight changes were monitored during the drug administration period and every week afterwards during the development of endometriosis.

Series [4] deals with stress reactivity. The series is described as follows: Swim stress challenge. To be noted: day 59; vs vehicle control group.
Setting [5] is: normalized to sham, large variability.
[6] abbreviates: compared to sham, both endometriosis groups regardless of treatment.

With `CCCCN(CC)c1nc(C)nc2c1c(C)c(C)n2-c1c(C)cc(C)cc1C` [antalarmin], in series [1] (compared to sham), the “hippocampal CRH mRNA” value is “increase in hippocampal CRH mRNA of similar magnitude” and the “hippocampal GR mRNA” value was “fourfold increase”. In series [1] (setting [5]), the “hippocampal CRHR1 mRNA increase” value is given as 15 fold and the “hippocampal CRHR2 mRNA increase” value came to 15 fold. In series [2] (setting [6]), the “CRHR1 immunolabeling in dentate gyrus (DG)” value is recorded as “Large increases in CRHR1 labeling” and the “GR immunolabeling in dentate gyrus (DG)” value is “Large increases in GR labeling”. Besides, in series [2] (day 60), the “CRH peptide immunolabeling in PVN and hippocampus” value is reported as “No changes in CRH peptide”; the “CRHR1 immunolabeling in CA3” value is “No changes in CRHR1”; the “GR immunolabeling in CA3” value is reported as “no changes in GR”. In series [3] (by week 7 and 8 after endometriosis induction), the “weight gain in subsequent weeks” value is “significantly lower weight gain”. Also, the “body weight during and just after drug administration” value in series [3] (day 7 and 2 days after treatment stopped) is reported as “weighed significantly less”. In series [4], the “swim stress behavioral parameters (immobility, swimming, struggling, diving)” value is reported as “not different from the control group”.
